Laboratory results from patent US7442501B2, “SQV nucleic acids and polypeptides” (Massachusetts Institute of Technology, priority 2002, dated 2008).

Tests used:
MBP-SQV-1 = experiment: UDP-glucuronic acid decarboxylase assay (HPLC-MS); assay type: biochemical, C. elegans; details: in the presence of NAD+ cofactor
Method: This enzymatic reaction mixture was analyzed using an HPLC coupled to a mass spectrometer. Ion phase reverse polarity HPLC separated the nucleotide sugars and […] into three peaks of elution as detected by UV (FIG. 3A). These peaks were determined by mass spectrometry to be the substrate UDP-glucuronic acid, the product UDP-xylose, and the cofactor NAD^+. Negative polarity mass spectra identified the masses of the most abundant compounds in the reaction sample as 579 and 535 (FIG. 3B). These masses corresponded to the molecular masses of UDP-glucuronic acid (580) and UDP-xylose (536). The slight difference in molecular mass (579 versus 580 and 535 versus 536) was due to the negative ionization by the mass spectrometer, which removed one hydrogen atom from each compound. The presence of isotopic masses of 536 and 537 corresponded to subpopulations of UDP-xylose containing heavy isotopes such as ^13C.
Standard molecular biology techniques were used (Sambrook et al., Molecular Cloning: A Laboratory Manual. Plainview, N.Y., Cold Spring Harbor Laboratory Pess, 1989) to obtain a construct that encoded a SQV-1-maltose-binding protein (MBP) fusion protein. The sqv-1 coding sequence was cloned into the MBP encoding vector, pMAL-c2. The oligonucleotides 5′-[…]-3′ (SEQ ID NO:32) and 5′-[…]-3′ (SEQ ID NO:33) were used to PCR-amplify the sqv-1 ORF. […]

SQV-4 = target: T1, SQV-4 (Caenorhabditis elegans, UniProt Q19905, T2A); assay type: biochemical, C. elegans; details: UDP-glucose replaced; 100 μM NAD+ and 250 μM nucleotide sugar
T1 construct: were used for PCR-amplification of the sqv-4 ORF, and the resulting product was digested with NcoI and XhoI and cloned into pET21d; made in house; host or cells: E. coli BL21 pLysS, pET21d; soluble fraction used without purification
T1 sequence (Q19905 whole entry T2A): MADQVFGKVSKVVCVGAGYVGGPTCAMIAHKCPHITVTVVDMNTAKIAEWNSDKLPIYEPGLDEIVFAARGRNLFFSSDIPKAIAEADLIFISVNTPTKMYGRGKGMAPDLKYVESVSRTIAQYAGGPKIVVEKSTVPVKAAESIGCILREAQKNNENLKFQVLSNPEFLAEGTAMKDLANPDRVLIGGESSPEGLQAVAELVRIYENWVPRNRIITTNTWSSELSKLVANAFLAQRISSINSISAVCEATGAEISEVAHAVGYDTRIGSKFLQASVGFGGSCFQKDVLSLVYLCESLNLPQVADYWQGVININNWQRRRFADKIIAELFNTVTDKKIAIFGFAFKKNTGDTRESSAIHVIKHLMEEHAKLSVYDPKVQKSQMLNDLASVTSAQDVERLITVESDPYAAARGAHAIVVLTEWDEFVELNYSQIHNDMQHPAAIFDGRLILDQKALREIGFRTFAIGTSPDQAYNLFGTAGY
Description: The sqv-4 coding sequences corresponding to the wild-type, n2827, and n2840 alleles were cloned into the pET21d E. coli expression vector and transformed into BL21 pLysS. The oligonucleotides 5′-[…]-3′ (SEQ ID NO:53) and 5′-[…]-3′ (SEQ ID NO:54) were used to generate R353H n2827 and T4101 n2840 mutations, respectively, by site-directed mutagenesis. The oligonucleotides 5′-[…]-3′ (SEQ ID NO:55) and 5′-[…]-3′ (SEQ ID NO:56) were used for PCR-amplification of the sqv-4 ORF, and the resulting product was digested with NcoI and XhoI and cloned into pET21d. All three proteins have a threonine to alanine mutation in the second amino acid because of the addition of an NcoI site at the 5′ end. SQV-4 expression was induced by incubation with 1 mM IPTG for three to four hours at 37° C. E. coli were pelleted and resuspended in 50 mM Tris-HCl pH 7.5, 1 mM DTT, 1 mM EDTA, 1 mM PMSF, 2 μg/ml pepstatin A, and aprotinin and lysed using a French pressure cell. The soluble fraction was separated from the insoluble inclusion bodies by centrifugation at 12,000 g for 20 minutes.
All assays were performed at room temperature (20 to 22° C.) in 50 mM Tris-HCl, 2 mM dithiothrietol (DTT), pH 8.7. The initial velocity of the reaction was determined from time points during the first 60 seconds after addition of the SQV-4 extract.

## O=C(O)[C@H]1O[C@H](OP(=O)(O)OP(=O)(O)OC[C@H]2O[C@@H](n3ccc(=O)[nH]c3=O)[C@H](O)[C@@H]2O)[C@H](O)[C@@H](O)[C@@H]1O [UDP-glucuronic acid]
MBP-SQV-1
  conversion by MBP-SQV-1 fusion protein: generated UDP-xylose from UDP-glucuronic acid
SQV-4
  NAD+ reduction: undetectable
